The test system of test [1] is Human Skeletal Muscle Myoblasts (HSMM). Put plainly: Resveratrol inhibition of PEP-mediated HSMM proliferation. Format: cell-based. The protocol:
The mechanism of PEP-induced HSMM proliferation was interrogated using resveratrol (InvivoGen, San Diego, CA), an NF-κB inhibitor, in culture grown with 2.5×10^11 PEP exosomes/mL. The concentration of PEP exosomes was chosen both because of its optimal impact on the growth of cultured HSMMs and to match the empirically determined timed release PEP concentration from TISSEEL (Baxter International, Inc., Deerfield, IL) reconstituted with 1×10^12 PEP exosomes/mL. HSMM were plated on a 96-well plate at 10,000 cells/well overnight. Resveratrol was incubated at concentrations ranging from 50 μM to 500 μM for an hour before adding 2.5×10^11 PEP exosomes/mL to each well. Data is generated from live cell proliferation analysis (INCUCYTE, Essen BioScience, Inc., Ann Arbor, MI) by acquiring phase images (10× lens; five images/well in 96-well plate with three wells/condition). Western blotting for expression of NF-κB p65 at 72 hours post inhibition was quantified and normalized (IMAGE STUDIO software, LI-COR Biosciences, Inc., Lincoln, NE) using a total protein stain.

The test system of another test is NF-κB p65. Description: Western blot of NF-κB p65 expression in HSMM cells. Format: cell-based, human. To be noted: increasing resveratrol 50 μM to 500 μM with 2.5×10^11 exosomes/mL PEP, 72 hours. As for the experimental part: Western blotting for expression of exosome markers was conducted in two different manners: traditional and Li-Cor. In the traditional method, equal amounts of protein were loaded into each lane and transferred to a PVDF membrane. The membranes were blocked in 5% nonfat dried milk diluted in TBST and incubated with primary antibodies against CD63, CD9, and Flotillin (Table 1). HIRP-conjugated secondary antibodies were used to incubate the membranes and were developed with enhanced chemiluminescence (AERSHAM, GE Healthcare, Chicago, TL). Loading was standardized to a GAPDH loading control. In the Li-Cor digital fluorescence method (Li-Cor Biosciences, Inc., Lincoln, NE), equal amounts of protein were loaded into each lane and transferred to a nitrocellulose membrane. The membranes were blocked in Li-Cor TBS Blocking Buffer and incubated with primary antibodies against NF-κB p65, and PD-L1. Secondary antibodies at 680 nm and 800 nm were used to fluorescently image the membranes using an imaging system (Odyssey CLx, Li-Cor Biosciences, Inc., Lincoln, NE). Digital fluorescent intensity was determined by IMAGE STUDIO software (Li-Cor Biosciences, Inc., Lincoln, NE) and loading was standardized by total protein stain (Li-Cor Biosciences, Inc., Lincoln, NE) for whole lane protein digital fluorescence and analyzed by EMPIRIA STUDIO software (Li-Cor Biosciences, Inc., Lincoln, NE). […]

In turn, `Oc1ccc(C=Cc2cc(O)cc(O)c2)cc1` [resveratrol] registered an inhibition at 250 µM in test [1] (Homo sapiens, Myoblast, 250 μM resveratrol, 2.5×10^11 exosomes/mL PEP, p<0.0001 vs PEP) of around 50%. In addition, the inhibition at 500 µM in test [1] (Homo sapiens, Myoblast, 500 μM resveratrol, 2.5×10^11 exosomes/mL PEP, p<0.0001 vs PEP) is around 100%. Besides, the “inhibition of myoblast growth” value in test [1] (low doses of resveratrol (e.g., 50 μM), with PEP) is listed as “not significantly inhibited”. In addition, the “NF-κB expression in PEP-treated HSMM following resveratrol treatment” value with NF-κB p65 was “dose dependent decrease”.

A word on the inhibition: it is how much of the control response was suppressed. A low value points to a response near the control.

The values are drawn from patent publication US20250018088A1, “COMPOSITIONS AND METHODS FOR REPAIRING DAMAGE TO SKELETAL MUSCLE” (MAYO FOUNDATION FOR MEDICAL EDUCATION AND RESEARCH, priority 2021, published 2025).
